In brackets after ≈: the same amount, converted by molar mass.
Tests used:
human RXFP1 = target: T1, human RXFP1 (Homo sapiens, UniProt Q9HBX9); experiment: RXFP1 Hu cAMP (Test A); format: cell-based; design: expressed in transfected cells; host or cells: Jump-In T-REx CHO-K1 cells (ThermoFisher), induced with 10 ng/ml doxycycline for 24 h; settings: RXFP1 Hu cAMP; for EC50: read-out: Test A EC50
T1 sequence (Q9HBX9 1-757): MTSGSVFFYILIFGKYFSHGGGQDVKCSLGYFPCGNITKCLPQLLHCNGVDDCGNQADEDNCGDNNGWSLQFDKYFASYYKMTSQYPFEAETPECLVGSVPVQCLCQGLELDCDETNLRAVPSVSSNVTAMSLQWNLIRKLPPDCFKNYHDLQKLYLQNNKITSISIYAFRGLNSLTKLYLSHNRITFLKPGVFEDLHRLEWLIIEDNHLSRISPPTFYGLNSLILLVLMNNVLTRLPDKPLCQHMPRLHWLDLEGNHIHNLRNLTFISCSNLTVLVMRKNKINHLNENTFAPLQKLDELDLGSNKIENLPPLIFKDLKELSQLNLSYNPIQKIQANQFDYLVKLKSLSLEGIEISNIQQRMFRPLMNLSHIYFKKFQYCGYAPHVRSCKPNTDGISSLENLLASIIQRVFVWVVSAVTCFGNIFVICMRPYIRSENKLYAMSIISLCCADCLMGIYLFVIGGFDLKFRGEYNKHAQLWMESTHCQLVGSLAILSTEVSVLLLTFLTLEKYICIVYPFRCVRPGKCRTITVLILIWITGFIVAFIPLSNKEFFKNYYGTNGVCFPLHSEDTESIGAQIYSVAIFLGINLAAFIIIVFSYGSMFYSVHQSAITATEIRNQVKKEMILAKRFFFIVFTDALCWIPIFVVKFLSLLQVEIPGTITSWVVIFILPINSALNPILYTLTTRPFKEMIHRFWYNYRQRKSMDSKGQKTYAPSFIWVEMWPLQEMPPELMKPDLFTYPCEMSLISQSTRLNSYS
Outline: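 Read-out is HTRF signal, inversely proportional to cAMP, converted to cAMP amount by standard curve. Stimulation occurred in inducible CHO-K1 cells expressing the human receptor with phosphodiesterases blocked by 0.5 mM IBMX.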

[1] = Human Hepatocyte Stability (Test D); format: in vitro ADME; settings: human, cryopreserved pooled human hepatocytes (LiverPool 10-Donor), geometric mean if run multiple times
Outline: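 Pooled 10-donor cryopreserved human hepatocytes (≥80% viable) in L-15 medium at 0.25×10^6 cells per 0.25 mL well. Compound added from 100 μM acetonitrile solution; incubated at 37 °C with shaking, acetonitrile-quenched, LC-MS analysed. Clint (μL/min/10^6 cells) from ln % parent vs time slope; geometric mean of repeat runs.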

Solubility (Test F) = format: physicochemical; settings: arithmetic mean if run multiple times
Description: The assay was conducted according to the Solubility Assay described in pages 164-167 of Wernevik, J. et al., “A Fully Integrated Assay Panel for Early Drug Metabolism and Pharmacokinetics Profiling”, Assay and Drug Development Technologies, 2020, 18(4), 157-179. Data are reported in Table 36 as solubility ([…]. Where the assay was run multiple times for the same compound, the arithmetic mean is reported.

[2] = Human Plasma Protein Binding (Test B); format: in vitro ADME; settings: fraction unbound (fu)
Outline: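 Human plasma protein binding run per the published Wernevik et al. (2020) integrated DMPK panel protocol. Values are fraction unbound (fu, % free); repeat runs averaged arithmetically.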

[3] = Human Liver Microsomal Stability (Test C); format: in vitro ADME; settings: human, liver microsomes
Outline: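 Human liver microsome incubation per the Wernevik et al. integrated DMPK panel protocol. Intrinsic clearance reported as CLint in μl/min/mg protein, averaged arithmetically over repeat runs.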

[4] = Rat Hepatocyte Stability (Test E); format: in vitro ADME; settings: rat, hepatocytes, geometric mean if run multiple times
Outline: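 Run per the published AstraZeneca-type rat hepatocyte stability protocol (Wernevik et al. panel). Values are mean intrinsic clearance, Clint in μl/min/10^6 cells; geometric mean used for repeated runs.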

Row | Structure (SMILES) | Test A Sinf (human RXFP1) [%] | EC50 (human RXFP1) [nM] | hepatocyte CLint at 1 µM [1] [µL/min/1e6 cells] | solubility (Solubility (Test F)) [µM] | Test B Human Plasma Protein Binding (% free) [2] [% free] | microsomal CLint [3] [µL/min/mg] | hepatocyte CLint [4] [µL/min/1e6 cells]
1 | COc1cc(F)c(-c2ncc(CCC(=O)O)s2)cc1C(=O)N[C@@H]1[C@H]2CC[C@H](C2)[C@@H]1C(=O)Nc1cccc(S(=O)(=O)C(F)(F)F)c1 [Example 243] | 96 | 99 | 26 | 900 (≈ 603 µg/mL) | 2.2 | 58 | 110
2 | COc1cc(F)c(-c2ccc(CCC(=O)O)nc2)cc1C(=O)N[C@@H]1[C@H]2CC[C@H](C2)[C@@H]1C(=O)Nc1cccc(S(=O)(=O)C(F)(F)F)c1 [Example 258, 3-(5-(2-Fluoro-4-methoxy-5-(((1S,2R,3S,4R)-3-((3-((trifluoromethyl)sulfonyl)phenyl)carbamoyl)bicyclo[2.2.1]heptan-2-yl)carbamoyl)phenyl)pyridin-2-yl)propanoic acid] | 106 | 120 | 30 | > 1000 | 1.7 | 65 | 35
3 | COc1cc(F)c(-c2ccc(C(=O)O)cc2)cc1C(=O)N[C@H]1[C@@H](C(=O)Nc2cc(F)cc(C(F)(F)F)c2)[C@@H]2C=C[C@H]1C2 (racemic) [Example 308] | 109 |  | 14 | > 1000 | 0.16 | 4.9 | 33
4 | COc1cc(F)c(O[C@H]2CC[C@@](C)(C(=O)O)CC2)cc1C(=O)N[C@@H]1[C@H]2CC[C@H](C2)[C@@H]1C(=O)NCC1(F)CCOCC1 [Example 146, (1S,4s)-4-(2-Fluoro-5-(((1S,2R,3S,4R)-3-(((4-fluorotetrahydro-2H-pyran-4-yl)methyl)carbamoyl)bicyclo[2.2.1]heptan-2-yl)carbamoyl)-4-methoxyphenoxy)-1-methylcyclohexane-1-carboxylic acid] | 87 | > 1900 | < 1 | 1000 (≈ 579 µg/mL) | 24 | < 3 | 14
5 | COc1cc(F)c(O[C@H]2CC[C@@](C)(C(=O)O)CC2)cc1C(=O)N[C@@H]1[C@H]2CC[C@H](C2)[C@@H]1C(=O)NCC1CCC1 [Example 2, (1S,4s)-4-(5-(((1S,2R,3S,4R)-3-((cyclobutylmethyl)carbamoyl)bicyclo[2.2.1]heptan-2-yl)carbamoyl)-2-fluoro-4-methoxyphenoxy)-1-methylcyclohexane-1-carboxylic acid] |  |  | 2 | > 1000 | 1.9 | 14 | 27
6 | COc1cc(F)c(O[C@H]2CC[C@@](CC#N)(C(=O)O)CC2)cc1C(=O)N[C@@H]1[C@H]2CC[C@H](C2)[C@@H]1C(=O)NCC1(C)CCC1 [Example 424, (1S,4s)-1-(Cyanomethyl)-4-(2-fluoro-4-methoxy-5-(((1S,2R,3S,4R)-3-(((1-methylcyclobutyl)methyl)carbamoyl)bicyclo[2.2.1]heptan-2-yl)carbamoyl)phenoxy)cyclohexane-1-carboxylic acid] |  |  | 10 | 990 (≈ 564 µg/mL) | 6.7 | 13 | 21
7 | COc1cc(C#N)c(O[C@H]2CC[C@@](C)(C(=O)O)CC2)cc1C(=O)N[C@@H]1[C@H]2CC[C@H](C2)[C@@H]1C(=O)NC12CC(F)(C1)C2 [Example 622] |  |  | 1.7 | > 860 | 17 | < 5.1 | 11
8 | COc1c(Cl)cc(O[C@H]2CC[C@@](C)(C(=O)O)CC2)cc1C(=O)N[C@@H]1[C@H]2CC[C@H](C2)[C@@H]1C(=O)NCC1(C)CCC1 [Example 403] |  |  | 13 | 660 (≈ 370 µg/mL) | 1.5 | 81 | 25

Further lines, results first:

Row | Test A Sinf (human RXFP1) [%] | EC50 (human RXFP1) [nM] | hepatocyte CLint at 1 µM [1] [µL/min/1e6 cells] | solubility (Solubility (Test F)) [µM] | Test B Human Plasma Protein Binding (% free) [2] [% free] | microsomal CLint [3] [µL/min/mg] | hepatocyte CLint [4] [µL/min/1e6 cells] | Structure (SMILES)
9 | 106 | 99 | 43 | > 1000 | 7.1 | 16 | 19 | COc1cc(C#N)c(O[C@H]2CC[C@@](C)(C(=O)O)CC2)cc1C(=O)NC1C2CCC(O2)C1C(=O)NCC1(C)CCC1 (single isomer, unassigned) [Example 534, (1R,4s)-4-(2-Cyano-4-methoxy-5-(((1S*,2S*,3R*,4R*)-3-(((1-methylcyclobutyl)methyl)carbamoyl)-7-oxabicyclo[2.2.1]heptan-2-yl)carbamoyl)phenoxy)-1-methylcyclohexane-1-carboxylic acid]
10 | 106 | 24 | 6.5 | 670 (≈ 368 µg/mL) | 0.87 | 32 | 20 | CC1(CNC(=O)[C@H]2[C@@H]3CC[C@@H](C3)[C@H]2NC(=O)c2cc(O[C@H]3CC[C@@](C)(C(=O)O)CC3)c(Cl)cc2F)CCC1 [Example 408]
11 |  |  | 3.9 | 300 (≈ 166 µg/mL) | 2.5 | 44 | 28 | CCc1cc(OC)c(C(=O)N[C@@H]2[C@H]3CC[C@H](C3)[C@@H]2C(=O)NCC2(C)CCC2)cc1O[C@H]1CC[C@@](C)(C(=O)O)CC1 [Example 376]
12 |  |  | 5.6 | > 890 | 6.3 | 19 | 18 | COc1cc(C#N)c(O[C@H]2CC[C@@](C)(C(=O)O)CC2)cc1C(=O)N[C@@H]1[C@H]2CC[C@H](C2)[C@@H]1C(=O)NCC1(C)CCC1 [Example 592, (1S,4s)-4-(2-cyano-4-methoxy-5-(((1S,2R,3S,4R)-3-(((1-methylcyclobutyl)methyl)carbamoyl)bicyclo[2.2.1]heptan-2-yl)carbamoyl)phenoxy)-1-methylcyclohexane-1-carboxylic acid]
13 |  |  | < 1.2 | 910 (≈ 491 µg/mL) | 12 | < 3 | 15 | COc1cc(C#N)c(O[C@H]2CC[C@@](C)(C(=O)O)CC2)cc1C(=O)N[C@H]1C(C(=O)NCC(C)(C)C)[C@@H]2CC[C@H]1C2 (stereo partly drawn) [Example 621, (1S,4s)-4-(2-cyano-4-methoxy-5-(((1S,2R,3S,4R)-3-(neopentylcarbamoyl)bicyclo[2.2.1]heptan-2-yl)carbamoyl)phenoxy)-1-methylcyclohexane-1-carboxylic acid]
14 |  |  | 4.7 | 470 (≈ 264 µg/mL) | 2.7 | 36 | 15 | COc1cc(Cl)c(O[C@H]2CC[C@@](C)(C(=O)O)CC2)cc1C(=O)N[C@@H]1[C@H]2CC[C@H](C2)[C@@H]1C(=O)NCC1(C)CCC1 [Example 392, (1S,4s)-4-(2-Chloro-4-methoxy-5-(((1S,2R,3S,4R)-3-(((1-methylcyclobutyl)methyl)carbamoyl)bicyclo[2.2.1]heptan-2-yl)carbamoyl)phenoxy)-1-methylcyclohexane-1-carboxylic acid]
15 |  |  | 3.1 | 240 (≈ 130 µg/mL) | 4.4 | 38 | 32 | COc1cc(C)c(O[C@H]2CC[C@@](C)(C(=O)O)CC2)cc1C(=O)N[C@@H]1[C@H]2CC[C@H](C2)[C@@H]1C(=O)NCC1(C)CCC1 [Example 375]

From patent publication US11667602B2, “Compounds and their use” (AstraZeneca AB, priority 2020, dated 2023)
